Broadly, the MIC80 is the lowest concentration that inhibits either 80% of growth or 80% of the strains tested, depending on the study. High values mean lower susceptibility, low ones higher susceptibility.

Common to all, as to type: functional
Experiment [1] has as its system Candida albicans. As to the kind of experiment: Ratio of caspofungin MIC to compound MIC for Candida albicans by serial dilution method.
For the next experiment, the system named is Pichia kudriavzevii. As to the kind of experiment: Antifungal activity against Candida krusei after 24 hrs by serial dilution method.
A further experiment relates to Aspergillus fumigatus. In words: Antifungal activity against Aspergillus fumigatus after 7 days by serial dilution method. The following applies: 168 h.
A further experiment concerns Candida tropicalis. In words: Antifungal activity against Candida tropicalis after 24 hrs by serial dilution method.
The subject of another experiment is Trichophyton rubrum. In words: Antifungal activity against Trichophyton rubrum after 7 days by serial dilution method. The conditions noted are these: 168 h.
A further experiment deals with Candida parapsilosis. In words: Antifungal activity against Candida parapsilosis after 24 hrs by serial dilution method. The conditions noted are these: Lodderomyces parapsilosis.
The test system of a further experiment is Cryptococcus neoformans. In words: Antifungal activity against Cryptococcus neoformans after 72 hrs by serial dilution method.
In experiment [2] the test system is Candida albicans. As to the kind of experiment: Antifungal activity against Candida albicans after 24 hrs by serial dilution method.

Converted amounts (≈) assume the structure as drawn. Bridge positions count the residues as written; N and C are the ends. Square brackets hold non-standard residues; d marks the D form. Peptide text beside a SMILES is read from it. * marks the point of attachment. pTerphenylCO(4''-OnC5H11) = CCCCCOc1ccc(-c2ccc(-c3ccc(C(=O)*)cc3)cc2)cc1; 2Naphthoyl(6-heptyloxy) = CCCCCCCOc1ccc2cc(C(=O)*)ccc2c1; 2Naphthoyl(6-octyloxy) = CCCCCCCCOc1ccc2cc(C(=O)*)ccc2c1; X1 = CCCOc1ccc(-c2ccc(-c3ccc(C(=O)*)cc3)cc2)cc1; Pro(4S-NH2) = N[C@@H]1CN[C@H](C(=O)O)C1; hTyr = N[C@@H](CCc1ccc(O)cc1)C(=O)O; Orn = NCCC[C@H](N)C(=O)O

Turning to `CCCOc1ccc(-c2ccc(-c3ccc(C(=O)N[C@H]4CCCNC(=O)[C@@H]5C[C@H](N)CN5C(=O)[C@H](CCCN)NC(=O)[C@H](CCc5ccc(O)cc5)NC(=O)[C@@H]5CCCN5C(=O)[C@H]([C@@H](C)O)NC4=O)cc3)cc2)cc1.Cc1ccc(S(=O)(=O)O)cc1` (X1-[Orn]TP[hTyr][Orn][Pro(4S-NH2)]; lactam 1-C), the Ratio in the experiment on Candida albicans [1] was 4. The MIC80 in the experiment on Pichia kudriavzevii worked out at 0.5 µg/mL; against Aspergillus fumigatus, 2 µg/mL; in the experiment with Candida tropicalis, 8 µg/mL; with Trichophyton rubrum it was 64 µg/mL; with Candida parapsilosis, 4 µg/mL; with Cryptococcus neoformans, 32 µg/mL. The MIC80 with Candida albicans [2] came to 0.125 µg/mL.
`CCCCCCCOc1ccc2cc(C(=O)N[C@H]3CCCNC(=O)[C@@H]4C[C@H](N)CN4C(=O)[C@H](CCCCN)NC(=O)[C@H](CCc4ccc(O)cc4)NC(=O)[C@@H]4CCCN4C(=O)[C@H]([C@@H](C)O)NC3=O)ccc2c1.Cc1ccc(S(=O)(=O)O)cc1` ({2Naphthoyl(6-heptyloxy)}-[Orn]TP[hTyr]K[Pro(4S-NH2)]; lactam 1-C): the Ratio with Candida albicans [1] was 4. Moreover, the MIC80 against Pichia kudriavzevii is 0.5 µg/mL; in the experiment on Aspergillus fumigatus it was 1 µg/mL; in the experiment with Candida tropicalis, 16 µg/mL; against Trichophyton rubrum it was 32 µg/mL; with Candida parapsilosis, 4 µg/mL; against Cryptococcus neoformans it was 64 µg/mL. The compound also showed an MIC80 with Candida albicans [2] of 0.125 µg/mL.
Consider `CCCCCCCCOc1ccc2cc(C(=O)N[C@H]3CCCNC(=O)[C@@H]4C[C@H](N)CN4C(=O)[C@H](CCCN)NC(=O)[C@H](CCc4ccc(O)cc4)NC(=O)[C@@H]4CCCN4C(=O)[C@H](C(C)C)NC3=O)ccc2c1.Cc1ccc(S(=O)(=O)O)cc1` ({2Naphthoyl(6-octyloxy)}-[Orn]VP[hTyr][Orn][Pro(4S-NH2)]; lactam 1-C), for which the MIC80 against Pichia kudriavzevii was 2 µg/mL; against Aspergillus fumigatus it was 1 µg/mL; in the experiment on Candida tropicalis it was 16 µg/mL; in the experiment on Trichophyton rubrum, 16 µg/mL; against Candida parapsilosis, 2 µg/mL; with Cryptococcus neoformans it was 16 µg/mL. In the experiment on Candida albicans [2], this compound yielded an MIC80 of 0.5 µg/mL.
For `CCCCCOc1ccc(-c2ccc(-c3ccc(C(=O)N[C@H]4CCCNC(=O)[C@@H]5C[C@H](N)CN5C(=O)[C@H](CCCCN)NC(=O)[C@H](CCc5ccc(O)cc5)NC(=O)[C@@H]5CCCN5C(=O)[C@H]([C@@H](C)O)NC4=O)cc3)cc2)cc1.Cc1ccc(S(=O)(=O)O)cc1` ({pTerphenylCO(4''-OnC5H11)}-[Orn]TP[hTyr]K[Pro(4S-NH2)]; lactam 1-C), the MIC80 in the experiment on Pichia kudriavzevii was 1 µg/mL; against Aspergillus fumigatus it was 1 µg/mL; against Candida tropicalis it was 8 µg/mL; with Trichophyton rubrum, 32 µg/mL; against Candida parapsilosis, 2 µg/mL; in the experiment on Cryptococcus neoformans it was 16 µg/mL. The MIC80 against Candida albicans [2] amounted to 0.5 µg/mL.
Turning to `CCCCCOc1ccc(-c2ccc(-c3ccc(C(=O)N[C@H]4CCCNC(=O)[C@@H]5C[C@H](N)CN5C(=O)[C@H](CCCN)NC(=O)[C@H](CCc5ccc(O)cc5)NC(=O)[C@@H]5CCCN5C(=O)[C@H]([C@@H](C)O)NC4=O)cc3)cc2)cc1.Cc1ccc(S(=O)(=O)O)cc1` ({pTerphenylCO(4''-OnC5H11)}-[Orn]TP[hTyr][Orn][Pro(4S-NH2)]; lactam 1-C), the MIC80 against Pichia kudriavzevii was determined as 0.5 µg/mL; with Aspergillus fumigatus, 1 µg/mL; against Candida tropicalis it was 4 µg/mL; in the experiment on Trichophyton rubrum it was 64 µg/mL; in the experiment with Candida parapsilosis it was 8 µg/mL; against Cryptococcus neoformans, 64 µg/mL. In addition, the MIC80 against Candida albicans [2] worked out at 0.25 µg/mL.
Turning to `CCCCCOc1ccc(-c2ccc(-c3ccc(C(=O)N[C@H]4CCCNC(=O)[C@@H]5C[C@H](N)CN5C(=O)[C@H](CCCCN)NC(=O)[C@H](CCc5ccc(O)cc5)NC(=O)[C@@H]5CCCN5C(=O)[C@H](C(C)C)NC4=O)cc3)cc2)cc1.Cc1ccc(S(=O)(=O)O)cc1` ({pTerphenylCO(4''-OnC5H11)}-[Orn]VP[hTyr]K[Pro(4S-NH2)]; lactam 1-C), the MIC80 against Pichia kudriavzevii stood at 2 µg/mL; against Aspergillus fumigatus, 1 µg/mL; in the experiment with Candida tropicalis, 16 µg/mL; in the experiment on Trichophyton rubrum, 32 µg/mL; in the experiment on Candida parapsilosis, 4 µg/mL; against Cryptococcus neoformans it was 32 µg/mL. Further, in the experiment with Candida albicans [2], the MIC80 stood at 1 µg/mL.
Turning to `CCCCCOc1ccc(-c2ccc(-c3ccc(C(=O)N[C@H]4CCCNC(=O)[C@@H]5C[C@H](N)CN5C(=O)[C@H](CCCN)NC(=O)[C@H](CCc5ccc(O)cc5)NC(=O)[C@@H]5CCCN5C(=O)[C@H](C(C)C)NC4=O)cc3)cc2)cc1.Cc1ccc(S(=O)(=O)O)cc1` ({pTerphenylCO(4''-OnC5H11)}-[Orn]VP[hTyr][Orn][Pro(4S-NH2)]; lactam 1-C), the MIC80 in the experiment on Pichia kudriavzevii came out at 2 µg/mL; with Aspergillus fumigatus, 0.5 µg/mL; in the experiment on Candida tropicalis, 8 µg/mL; in the experiment with Trichophyton rubrum, 32 µg/mL; in the experiment on Candida parapsilosis, 4 µg/mL; in the experiment on Cryptococcus neoformans, 32 µg/mL. Also, the MIC80 in the experiment on Candida albicans [2] turned out to be 1 µg/mL.
`CC[C@H](C)C[C@H](C)CCCCCCCCC(=O)N[C@H]1C[C@@H](O)[C@@H](NCCN)NC(=O)[C@@H]2[C@@H](O)CCN2C(=O)[C@H]([C@H](O)CCN)NC(=O)[C@H]([C@H](O)[C@@H](O)c2ccc(O)cc2)NC(=O)[C@@H]2C[C@@H](O)CN2C(=O)[C@H]([C@@H](C)O)NC1=O` [CASPOFUNGIN]: the MIC80 in the experiment with Pichia kudriavzevii was determined as 0.25 µg/mL (≈ 0.229 µM); in the experiment on Aspergillus fumigatus it was 1 µg/mL (≈ 0.915 µM); with Candida tropicalis it was 4 µg/mL (≈ 3.66 µM); with Trichophyton rubrum it was 16 µg/mL (≈ 14.6 µM); with Candida parapsilosis, 1 µg/mL (≈ 0.915 µM); in the experiment on Cryptococcus neoformans, 16 µg/mL (≈ 14.6 µM). In addition, in the experiment with Candida albicans [2], the MIC80 amounted to 0.5 µg/mL (≈ 0.457 µM).

These data come from ChEMBL document CHEMBL1949505, “Total synthesis and structure-activity relationships of new echinocandin-like antifungal cyclolipohexapeptides” (2012).
